Assay results: patent US8703744B2, “Cholesterol level lowering liposomes” (priority 2009, dated 2014)

Test system: Huh7.5 cells
Experiment: Uptake of rh-PE-labeled 22:6 ER liposomes into Huh7.5 cells in the presence of drugs that up- and down-regulate LDLr expression
Type: cell-based, human
Details: 10 μM, 24 h pre-treatment, then 50 μM rhodamine-labeled 22:6 ER liposomes for 24 h
Method: Liposomes were prepared as described in US patent publication no. 20090252785 and included 1% (total moles) of rh-PE for monitoring their uptake in cells. JC-1-infected (MOI=0.5) or uninfected Huh7.5 cells were seeded in 6 well plates at a density of 3×10^5 cell/well in 2 ml of complete DMEM/10% FCS medium. Cells were either pre-treated or not with 1 μM and 10 μM squalestatin (SQ, Sigma) or 25-hydroxycholesterol (25-HC, Sigma) for 24 h in serum-free complete DMEM. Following the 24 h pre-incubation, rh-labeled liposomes were added to a final lipid concentration of 50 μM, and left to incubate for a further 24 h. Following incubation times, cells were washed twice in 1×PBS, detached, counted, and resuspended in 200 μl 1×PBS/1% Triton® X-100 before being transferred to a 96 well plate to read in a spectrofluorometer at λex=550 nm, Xem=590 nm.
22:6 ER liposomes (final lipid concentration of 50 μM), labeled with 1% rh-PE in the lipid bilayer, were then added to cells and left to incubate a further 24 h. Cells were then harvested, counted, and rh-PE fluorescence was measured at λex=550 nm, Xem=590 nm. All data represent the mean and SD of triplicates from three independent experiments. Data are presented in relation to the untreated control (100%), and significant differences from this value are denoted with * (P<0.05) or ** (P<0.001).

Compound | decrease in liposome uptake [%] | liposome uptake, in relation to the untreated control (100%) [%]
C[C@H](CCCC(C)(C)O)[C@H]1CC[C@H]2[C@@H]3CC=C4C[C@@H](O)CC[C@]4(C)[C@H]3CC[C@]12C [25-HC, 25-hydroxycholesterol] | 69 | –
C=C(CC[C@]12O[C@H](C(=O)O)[C@@](O)(C(=O)O)[C@](C(=O)O)(O1)[C@H](OC(=O)/C=C/[C@@H](C)C[C@@H](C)CC)[C@H]2O)[C@@H](OC(C)=O)[C@H](C)Cc1ccccc1 [SQ, squalestatin] | – | 117
